The conditions of the data set: mouse, microsomes, 1 h.

Molecules are shown by their SMILES.

Drawing on ChEMBL document CHEMBL6103551 (Bioorg Med Chem Lett, 2025), this text covers Stability for one molecule.

Description: Metabolic stability in mouse liver microsomes assessed as reduction in NADPH incubated for 60 mins by fluorescence based assay relative to control

With `CCOC(=O)N1CCC(NC(=S)Nc2cc(Cl)cc(Cl)c2)CC1`, the Stability result is “Stable”.
